In PubChem BioAssay AID1963424 (Molecular Pharmacology Branch, DTP, NCI, 2024):
Where “and” joins values, the source holds several entries; their conditions need not be identical. Equal values may be shown once.

Test system: 327498-153-R-J2-PDC complex spheroid growth, % test/control
Assay: Anticancer human tumor 327498-153-R-J2-PDC patient-derived uterine carcinosarcoma cell line growth inhibition [Asc]
Details: for viability, T/C: stronger effect = lower value; active means viability on the fitted dose curve at most 10% of control; inactive means the rest
Method in brief: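 Tumor cells were grown as multicellular spheroids with stromal HUVEC and mesenchymal stem cells and treated singly or in combination. Concentrations fell in half-log steps from the clinical Cmax, or from 10 microM where none was known.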

[1] = curve of first compound, second compound 0.01 µM
[2] = curve of first compound, second compound 0.0316 µM
[3] = curve of first compound, second compound 0.1 µM
[4] = curve of first compound, second compound 0.316 µM
[5] = curve of first compound, second compound 1 µM
[6] = second compound 0.01 µM, first compound 0.00316 µM
[7] = second compound 0.01 µM, first compound 0.01 µM
[8] = second compound 0.01 µM, first compound 0.0316 µM
[9] = second compound 0.01 µM, first compound 0.1 µM
[10] = second compound 0.0316 µM, first compound 0.00316 µM
[11] = second compound 0.0316 µM, first compound 0.01 µM
[12] = second compound 0.0316 µM, first compound 0.0316 µM
[13] = second compound 0.0316 µM, first compound 0.1 µM
[14] = second compound 0.1 µM, first compound 0.00316 µM
[15] = second compound 0.1 µM, first compound 0.01 µM
[16] = second compound 0.1 µM, first compound 0.0316 µM
[17] = second compound 0.1 µM, first compound 0.1 µM
[18] = second compound 0.316 µM, first compound 0.00316 µM
[19] = second compound 0.316 µM, first compound 0.01 µM
[20] = second compound 0.316 µM, first compound 0.0316 µM
[21] = second compound 0.316 µM, first compound 0.1 µM
[22] = second compound 1 µM, first compound 0.00316 µM
[23] = second compound 1 µM, first compound 0.01 µM
[24] = second compound 1 µM, first compound 0.0316 µM
[25] = second compound 1 µM, first compound 0.1 µM
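Further: spheroids exposed to compound for 7 days after 3 days of growth.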
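Wherever viability, T/C is given: 100% = DMSO vehicle control wells.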

NC1CCC(NC2CC2c2ccccc2)CC1 (configuration not stated) + CNC(C)C(=O)NC1CN(S(=O)(=O)c2cccc(S(=O)(=O)N3CCC4CCC(C(=O)NC(c5ccccc5)c5ccccc5)N4C(=O)C(NC(=O)C(C)NC)C3)c2)CCC2CCC(C(=O)NC(c3ccccc3)c3ccccc3)N2C1=O
> 100 nM: IC50 [1] | IC50 [2] | IC50 [3] | IC50 [4] | IC50 [5]
inactive: viability, T/C (second compound 0.01 µM, first compound 0.000316 µM) 103% | viability, T/C (second compound 0.01 µM, first compound 0.001 µM) 106% | viability, T/C [6] 92.3% | viability, T/C [7] 97.6% | viability, T/C [8] 99.4% | viability, T/C [9] 96% | viability, T/C (second compound 0.0316 µM, first compound 0.000316 µM) 104% | viability, T/C (second compound 0.0316 µM, first compound 0.001 µM) 104% | viability, T/C [10] 101% | viability, T/C [11] 100% | viability, T/C [12] 99.9% | viability, T/C [13] 101% | viability, T/C (second compound 0.1 µM, first compound 0.000316 µM) 100% | viability, T/C (second compound 0.1 µM, first compound 0.001 µM) 101% | viability, T/C [14] 100% | viability, T/C [15] 104% | viability, T/C [16] 108% | viability, T/C [17] 98.9% | viability, T/C (second compound 0.316 µM, first compound 0.000316 µM) 101% | viability, T/C (second compound 0.316 µM, first compound 0.001 µM) 107% | viability, T/C [18] 106% | viability, T/C [19] 98.5% | viability, T/C [20] 96.8% | viability, T/C [21] 100% | viability, T/C (second compound 1 µM, first compound 0.000316 µM) 106% | viability, T/C (second compound 1 µM, first compound 0.001 µM) 113% | viability, T/C [22] 108% | viability, T/C [23] 105% | viability, T/C [24] 94.7% | viability, T/C [25] 97.8%

CCN1CCN(Cc2ccc(Nc3ncc(F)c(-c4cc(F)c5nc(C)n(C(C)C)c5c4)n3)nc2)CC1 + CNC(C)C(=O)NC1CN(S(=O)(=O)c2cccc(S(=O)(=O)N3CCC4CCC(C(=O)NC(c5ccccc5)c5ccccc5)N4C(=O)C(NC(=O)C(C)NC)C3)c2)CCC2CCC(C(=O)NC(c3ccccc3)c3ccccc3)N2C1=O
> 1000 nM: IC50 [1] | IC50 [2] | IC50 [3] | IC50 [4] | IC50 [5]
inactive: viability, T/C [6] 102% | viability, T/C [7] 110% | viability, T/C [8] 97.7% | viability, T/C [9] 88.9% | viability, T/C (second compound 0.01 µM, first compound 0.316 µM) 68.7% | viability, T/C (second compound 0.01 µM, first compound 1 µM) 73.8% | viability, T/C [10] 106% | viability, T/C [11] 104% | viability, T/C [12] 90.5% | viability, T/C [13] 82.4% | viability, T/C (second compound 0.0316 µM, first compound 0.316 µM) 61.2% | viability, T/C (second compound 0.0316 µM, first compound 1 µM) 65% | viability, T/C [14] 99.4% | viability, T/C [15] 104% | viability, T/C [16] 94% | viability, T/C [17] 76.7% | viability, T/C (second compound 0.1 µM, first compound 0.316 µM) 68% | viability, T/C (second compound 0.1 µM, first compound 1 µM) 68.2% | viability, T/C [18] 110% | viability, T/C [19] 100% | viability, T/C [20] 95.5% | viability, T/C [21] 75.9% | viability, T/C (second compound 0.316 µM, first compound 0.316 µM) 65.8% | viability, T/C (second compound 0.316 µM, first compound 1 µM) 64.4% | viability, T/C [22] 106% | viability, T/C [23] 115% | viability, T/C [24] 91.6% | viability, T/C [25] 82.1% | viability, T/C (second compound 1 µM, first compound 0.316 µM) 73% | viability, T/C (second compound 1 µM, first compound 1 µM) 54.7%

C#Cc1c(F)ccc2cc(O)cc(-c3ncc4c(N5CC6CCC(C5)N6)nc(OCC56CCCN5CC(F)C6)nc4c3F)c12 (configuration not stated)
> 10000 nM and 8780 nM: IC50 (curve of compound)
inactive: viability, T/C (compound 0.0316 µM) 108% and 96.6% and 89.6% | viability, T/C (compound 0.1 µM) 101% and 100% and 94% | viability, T/C (compound 0.316 µM) 101% and 82.7% and 90.7% | viability, T/C (compound 1 µM) 82.9% and 72.4% and 78.3% | viability, T/C (compound 3.16 µM) 69.9% and 64.9% and 68.1% | viability, T/C (compound 10 µM) 58% and 47.4% and 53.3%
